Measurements as given in ChEMBL document CHEMBL1201862, “PubChem BioAssay data set” (2004).
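A five-concentration, 48-hour dose response in 96-well plates underlies each endpoint, interpolated linearly between surrounding concentrations. GI50: concentration for 50% inhibition of growth.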 The source made the active and inactive calls. Cut-off read from the data, not from the text of the source: active = GI50 up to about 1.1 µM and inactive = higher.

Key:
Assay in all cases: NCI anticancer screen, dose series, 48 h
IGROV-1 = test system: IGROV-1
HCT-116 = test system: HCT-116
COLO 205 = test system: COLO 205
SF-539 = test system: SF-539
HCT-15 = test system: HCT-15
OVCAR-8 = test system: OVCAR-8
786-0 = test system: 786-0
UO-31 = test system: UO-31
SW-620 = test system: SW-620
NCI-H226 = test system: NCI-H226
SNB-75 = test system: SNB-75
M14 = test system: M14
HCC 2998 = test system: HCC 2998
MOLT-4 = test system: MOLT-4
HOP-62 = test system: HOP-62
HT-29 = test system: HT-29
A549 = test system: A549
LOX IMVI = test system: LOX IMVI

Row | Structure (SMILES) | GI50 (IGROV-1) | GI50 (HCT-116) | GI50 (COLO 205) | GI50 (SF-539) | GI50 (HCT-15) [µM] | GI50 (OVCAR-8) | GI50 (786-0) | GI50 (UO-31) | GI50 (SW-620) | GI50 (NCI-H226) | GI50 (SNB-75) | GI50 (M14) | GI50 (HCC 2998) | GI50 (MOLT-4) | GI50 (HOP-62) | GI50 (HT-29) | GI50 (A549) | GI50 (LOX IMVI)
1 | CC1=NC(C(C)C)C(=O)O1 (stereo not given) | > 100 µM (inactive) | 18.5 µM (inactive) | 72.3 µM (inactive) | > 100 µM (inactive) | 34.4 | > 100 µM (inactive) | 58.1 µM (inactive) | > 100 µM (inactive) | 13.1 µM (inactive) | > 100 µM (inactive) | > 100 µM (inactive) | > 100 µM (inactive) | > 100 µM (inactive) | > 100 µM (inactive) | > 100 µM (inactive) | 61.1 µM (inactive) | – | –
2 | O=C(O)C(CS)Nc1c2ccccc2[n+]([O-])c2ccccc12 (stereo not given) | > 100 µM (inactive) | 92 µM (inactive) | > 100 µM (inactive) | – | > 100 | > 100 µM (inactive) | > 100 µM (inactive) | 49.8 µM (inactive) | > 100 µM (inactive) | > 100 µM (inactive) | > 100 µM (inactive) | > 100 µM (inactive) | > 100 µM (inactive) | > 100 µM (inactive) | > 100 µM (inactive) | > 100 µM (inactive) | > 100 µM (inactive) | > 100 µM (inactive)
3 | Cc1ccc2ccc(-c3ccccc3)c3c2c1C(=O)c1ccccc1C3=O | > 100 µM (inactive) | > 100 µM (inactive) | > 100 µM (inactive) | 54.3 µM (inactive) | – | 72.4 µM (inactive) | 36.5 µM (inactive) | > 100 µM (inactive) | > 100 µM (inactive) | > 100 µM (inactive) | 18.3 µM (inactive) | 79.8 µM (inactive) | > 100 µM (inactive) | > 100 µM (inactive) | 54.3 µM (inactive) | > 100 µM (inactive) | > 100 µM (inactive) | > 100 µM (inactive)
4 | CN(C)CCC(CCN(C)C)=NO | > 100 µM (inactive) | > 100 µM (inactive) | > 100 µM (inactive) | > 100 µM (inactive) | > 100 | > 100 µM (inactive) | > 100 µM (inactive) | > 100 µM (inactive) | > 100 µM (inactive) | – | > 100 µM (inactive) | > 100 µM (inactive) | > 100 µM (inactive) | > 100 µM (inactive) | > 100 µM (inactive) | > 100 µM (inactive) | > 100 µM (inactive) | –
5 | CN(C)CC(=O)N1CCc2c([nH]c3ccccc23)C1c1cccnc1 (stereo not given) | > 100 µM (inactive) | > 100 µM (inactive) | – | > 100 µM (inactive) | > 100 | > 100 µM (inactive) | > 100 µM (inactive) | 22.5 µM (inactive) | > 100 µM (inactive) | – | 65 µM (inactive) | > 100 µM (inactive) | > 100 µM (inactive) | > 100 µM (inactive) | > 100 µM (inactive) | > 100 µM (inactive) | > 100 µM (inactive) | > 100 µM (inactive)
6 | COC1CCCc2c(OC(C)=O)ccc(OC(C)=O)c21 (stereo not given) | > 100 µM (inactive) | > 100 µM (inactive) | – | – | > 100 | – | > 100 µM (inactive) | > 100 µM (inactive) | > 100 µM (inactive) | > 100 µM (inactive) | > 100 µM (inactive) | > 100 µM (inactive) | > 100 µM (inactive) | > 100 µM (inactive) | > 100 µM (inactive) | – | > 100 µM (inactive) | > 100 µM (inactive)
7 | O=S(O)CCCCSSCc1ccccc1CSSCCCCS(=O)O | 49.4 µM (inactive) | – | 15.5 µM (inactive) | 15.1 µM (inactive) | 19.1 | 17.1 µM (inactive) | > 100 µM (inactive) | 11.1 µM (inactive) | 25.8 µM (inactive) | – | 9.16 µM (inactive) | 10.3 µM (inactive) | 19 µM (inactive) | 0.904 µM (active) | 35.3 µM (inactive) | 8.34 µM (inactive) | 28.8 µM (inactive) | 10.5 µM (inactive)
8 | C=C[C@@]1(C)CCC2(O)C(CCC3C2(C)CCC[C@@]3(C)COC(=O)CC(=O)OC)C1 (stereo not given in full) | 26.5 µM (inactive) | 18 µM (inactive) | – | 19.6 µM (inactive) | 18.4 | 23.1 µM (inactive) | 35.6 µM (inactive) | 22.6 µM (inactive) | 17.6 µM (inactive) | 26.2 µM (inactive) | 19.9 µM (inactive) | 18.1 µM (inactive) | 61.4 µM (inactive) | 17.2 µM (inactive) | 18.5 µM (inactive) | 18.9 µM (inactive) | 17.6 µM (inactive) | 16.5 µM (inactive)
9 | C=C1C(=O)O[C@H]2[C@H]1[C@H](OC(=O)/C(C)=C\C)CC(=C)[C@@H]1[C@H](O)[C@H]3O[C@@]3(C)[C@@]12O [EUPATUNDIN] | > 100 µM (inactive) | > 100 µM (inactive) | > 100 µM (inactive) | > 100 µM (inactive) | > 100 | > 100 µM (inactive) | > 100 µM (inactive) | > 100 µM (inactive) | > 100 µM (inactive) | – | > 100 µM (inactive) | > 100 µM (inactive) | > 100 µM (inactive) | – | > 100 µM (inactive) | > 100 µM (inactive) | > 100 µM (inactive) | > 100 µM (inactive)
